Laboratory results reported in publication PMC9898036, “VIP152 is a selective CDK9 inhibitor with pre-clinical in vitro and in vivo efficacy in chronic lymphocytic leukemia” (Leukemia, 2022).
Like-named read-outs stand apart in the source and are kept apart here.

Legend:
[1] = biological target: ABL2 (Homo sapiens, UniProt P42684); assay: KINOMEscan: ABL2; format: binding; settings: 1000 nM, read-out: Percent Control
[2] = biological target: CSNK1D (Homo sapiens, UniProt P48730); assay: KINOMEscan: CSNK1D; format: binding; settings: 1000 nM, read-out: Percent Control
[3] = biological target: Adrenergic α1B (Rattus norvegicus, UniProt P15823); assay: Eurofins Diversity Panel; format: binding; settings: Conc. 10 μM
[4] = biological target: MST1 (Homo sapiens, UniProt Q13043); assay: KINOMEscan: MST1; format: binding; settings: 1000 nM, read-out: Percent Control
[5] = biological target: ERK8 (Homo sapiens, UniProt Q8TD08); assay: KINOMEscan: ERK8; format: binding; settings: 1000 nM, read-out: Percent Control
[6] = biological target: Epidermal Growth Factor (EGF) (Homo sapiens, UniProt P00533); assay: Eurofins Diversity Panel; format: binding; settings: hum, Conc. 10 μM
[7] = biological target: GCN2(Kin.Dom.2,S808G) (Homo sapiens, UniProt Q9P2K8, S808G); assay: KINOMEscan: GCN2(Kin.Dom.2,S808G); format: binding; settings: 1000 nM, read-out: Percent Control
[8] = biological target: CDK4-cyclinD1 (Homo sapiens, UniProt P11802); assay: KINOMEscan: CDK4-cyclinD1; format: binding; settings: 1000 nM, read-out: Percent Control
[9] = biological target: CDC2L2 (Homo sapiens, UniProt Q9UQ88); assay: KINOMEscan: CDC2L2; format: binding; settings: 1000 nM, read-out: Percent Control
[10] = biological target: human kinome (Homo sapiens, UniProt Q86Z02); assay: DiscoverX KINOMEscan kinase profiling (468 assays); format: binding; settings: HIPK1; 100 nM; read-out: Percent Control
In short: (§1)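 DNA-tagged kinases competed for immobilized biotinylated ligands on streptavidin magnetic beads, with bound kinase quantified by qPCR. VIP152 in DMSO was tested against a DMSO control.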

[11] = biological target: human kinome (Homo sapiens, UniProt Q9BYT3); assay: DiscoverX KINOMEscan kinase profiling (468 assays); format: binding; settings: kinase STK33 (Entrez STK33); compound concentration 1000 nM; read-out: Percent Control
In short: as §1

[12] = biological target: human kinome (Homo sapiens, UniProt Q9Y2U5); assay: DiscoverX KINOMEscan kinase profiling (468 assays); format: binding; settings: MAP3K2; 100 nM; read-out: Percent Control
In short: as §1

[13] = biological target: human kinome (Homo sapiens, UniProt P16234); assay: DiscoverX KINOMEscan kinase profiling (468 assays); format: binding; settings: read-out: Percent Control
In short: as §1

[14] = biological target: human kinome (Homo sapiens, UniProt Q9UQB9); assay: DiscoverX KINOMEscan kinase profiling (468 assays); format: binding; settings: AURKC; 100 nM; read-out: Percent Control
In short: as §1

[15] = biological target: human kinome (Homo sapiens, UniProt P21860); assay: DiscoverX KINOMEscan kinase profiling (468 assays); format: binding; settings: ERBB3; 100 nM; read-out: Percent Control
In short: as §1

[16] = biological target: human kinome (Homo sapiens, UniProt Q96PN8); assay: DiscoverX KINOMEscan kinase profiling (468 assays); format: binding; settings: kinase TSSK3 (Entrez TSSK3); compound concentration 1000 nM; read-out: Percent Control
In short: as §1

[17] = biological target: human kinome (Homo sapiens, UniProt P00533, L858R/T790M); assay: DiscoverX KINOMEscan kinase profiling (468 assays); format: binding; settings: EGFR(L858R,T790M); 100 nM; read-out: Percent Control
In short: as §1

[18] = biological target: human kinome (Homo sapiens, UniProt Q96PY6); assay: DiscoverX KINOMEscan kinase profiling (468 assays); format: binding; settings: read-out: Percent Control
In short: as §1

[19] = biological target: human kinome (Homo sapiens, UniProt P53667); assay: DiscoverX KINOMEscan kinase profiling (468 assays); format: binding; settings: LIMK1; 100 nM; read-out: Percent Control
In short: as §1

[20] = biological target: TNK1 (Homo sapiens, UniProt Q13470); assay: KINOMEscan: TNK1; format: binding; settings: 100 nM, read-out: Percent Control
[21] = biological target: BRK (Homo sapiens, UniProt Q13882); assay: KINOMEscan: BRK; format: binding; settings: 1000 nM, read-out: Percent Control
[22] = biological target: DCAMKL3 (Homo sapiens, UniProt Q9C098); assay: KINOMEscan: DCAMKL3; format: binding; settings: 1000 nM, read-out: Percent Control
[23] = biological target: MST4 (Homo sapiens, UniProt Q9P289); assay: KINOMEscan: MST4; format: binding; settings: 1000 nM, read-out: Percent Control
[24] = biological target: Glutamate, NMDA, Glycine (Rattus norvegicus, UniProt P35439); assay: Eurofins Diversity Panel; format: binding; settings: Conc. 10 μM
[25] = biological target: TRKB (Homo sapiens, UniProt Q16620); assay: KINOMEscan: TRKB; format: binding; settings: 100 nM, read-out: Percent Control
[26] = biological target: FLT1 (Homo sapiens, UniProt P17948); assay: KINOMEscan: FLT1; format: binding; settings: 1000 nM, read-out: Percent Control
[27] = biological target: CSNK1A1L (Homo sapiens, UniProt Q8N752); assay: KINOMEscan: CSNK1A1L; format: binding; settings: 1000 nM, read-out: Percent Control
[28] = biological target: SNRK (Homo sapiens, UniProt Q9NRH2); assay: KINOMEscan: SNRK; format: binding; settings: 100 nM, read-out: Percent Control
[29] = biological target: GRK4 (Homo sapiens, UniProt P32298); assay: KINOMEscan: GRK4; format: binding; settings: 1000 nM, read-out: Percent Control
[30] = system: HG-3; assay: MTS proliferation assay; format: cell-based
[31] = biological target: RIPK4 (Homo sapiens, UniProt P57078); assay: KINOMEscan: RIPK4; format: binding; settings: 100 nM, read-out: Percent Control
[32] = biological target: TSSK3 (Homo sapiens, UniProt Q96PN8); assay: KINOMEscan: TSSK3; format: binding; settings: 100 nM, read-out: Percent Control
[33] = biological target: Dopamine D1 (Homo sapiens, UniProt P21728); assay: Eurofins Diversity Panel; format: binding; settings: hum, Conc. 10 μM
[34] = biological target: Serotonin (5-Hydroxytryptamine) 5-HT2B) (Homo sapiens, UniProt P41595); assay: Eurofins Diversity Panel; format: binding; settings: hum, Conc. 10 μM
[35] = biological target: SYK (Homo sapiens, UniProt P43405); assay: KINOMEscan: SYK; format: binding; settings: 100 nM, read-out: Percent Control

Chain of human kinome (Homo sapiens, UniProt Q96PY6) (Q96PY6 whole entry): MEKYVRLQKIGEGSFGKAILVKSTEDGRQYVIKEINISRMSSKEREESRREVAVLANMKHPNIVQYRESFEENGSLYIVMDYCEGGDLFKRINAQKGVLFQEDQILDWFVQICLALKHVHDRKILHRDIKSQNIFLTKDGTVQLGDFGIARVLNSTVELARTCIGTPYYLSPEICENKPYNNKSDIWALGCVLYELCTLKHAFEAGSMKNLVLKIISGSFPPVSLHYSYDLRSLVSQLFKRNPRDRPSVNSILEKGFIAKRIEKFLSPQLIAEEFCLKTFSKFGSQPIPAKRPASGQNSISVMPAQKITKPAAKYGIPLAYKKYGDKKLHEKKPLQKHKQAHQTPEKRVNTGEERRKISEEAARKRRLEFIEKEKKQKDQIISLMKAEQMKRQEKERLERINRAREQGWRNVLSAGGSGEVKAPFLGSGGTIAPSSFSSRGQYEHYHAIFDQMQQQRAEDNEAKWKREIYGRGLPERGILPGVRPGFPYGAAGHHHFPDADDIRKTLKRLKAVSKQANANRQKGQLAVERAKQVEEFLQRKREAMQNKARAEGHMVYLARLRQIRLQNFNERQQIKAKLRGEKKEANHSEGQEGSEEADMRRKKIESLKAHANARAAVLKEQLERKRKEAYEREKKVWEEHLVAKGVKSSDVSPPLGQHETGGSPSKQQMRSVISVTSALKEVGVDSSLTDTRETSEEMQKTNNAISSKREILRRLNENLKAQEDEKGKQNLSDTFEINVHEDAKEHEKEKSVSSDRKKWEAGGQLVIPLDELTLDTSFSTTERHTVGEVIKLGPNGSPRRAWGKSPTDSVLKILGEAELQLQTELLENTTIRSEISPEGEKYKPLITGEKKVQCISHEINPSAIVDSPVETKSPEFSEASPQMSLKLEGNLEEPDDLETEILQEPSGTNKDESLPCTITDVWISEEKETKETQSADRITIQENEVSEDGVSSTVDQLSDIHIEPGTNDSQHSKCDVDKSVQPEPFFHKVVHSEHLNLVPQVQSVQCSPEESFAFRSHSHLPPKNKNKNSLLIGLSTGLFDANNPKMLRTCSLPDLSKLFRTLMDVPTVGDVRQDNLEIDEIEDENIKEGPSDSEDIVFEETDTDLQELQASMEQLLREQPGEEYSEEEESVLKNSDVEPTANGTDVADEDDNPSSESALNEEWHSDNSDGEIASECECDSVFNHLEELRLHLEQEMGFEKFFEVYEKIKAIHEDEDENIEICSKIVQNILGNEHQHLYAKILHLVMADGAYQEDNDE
Chain of human kinome (Homo sapiens, UniProt P16234) (P16234 24-1089): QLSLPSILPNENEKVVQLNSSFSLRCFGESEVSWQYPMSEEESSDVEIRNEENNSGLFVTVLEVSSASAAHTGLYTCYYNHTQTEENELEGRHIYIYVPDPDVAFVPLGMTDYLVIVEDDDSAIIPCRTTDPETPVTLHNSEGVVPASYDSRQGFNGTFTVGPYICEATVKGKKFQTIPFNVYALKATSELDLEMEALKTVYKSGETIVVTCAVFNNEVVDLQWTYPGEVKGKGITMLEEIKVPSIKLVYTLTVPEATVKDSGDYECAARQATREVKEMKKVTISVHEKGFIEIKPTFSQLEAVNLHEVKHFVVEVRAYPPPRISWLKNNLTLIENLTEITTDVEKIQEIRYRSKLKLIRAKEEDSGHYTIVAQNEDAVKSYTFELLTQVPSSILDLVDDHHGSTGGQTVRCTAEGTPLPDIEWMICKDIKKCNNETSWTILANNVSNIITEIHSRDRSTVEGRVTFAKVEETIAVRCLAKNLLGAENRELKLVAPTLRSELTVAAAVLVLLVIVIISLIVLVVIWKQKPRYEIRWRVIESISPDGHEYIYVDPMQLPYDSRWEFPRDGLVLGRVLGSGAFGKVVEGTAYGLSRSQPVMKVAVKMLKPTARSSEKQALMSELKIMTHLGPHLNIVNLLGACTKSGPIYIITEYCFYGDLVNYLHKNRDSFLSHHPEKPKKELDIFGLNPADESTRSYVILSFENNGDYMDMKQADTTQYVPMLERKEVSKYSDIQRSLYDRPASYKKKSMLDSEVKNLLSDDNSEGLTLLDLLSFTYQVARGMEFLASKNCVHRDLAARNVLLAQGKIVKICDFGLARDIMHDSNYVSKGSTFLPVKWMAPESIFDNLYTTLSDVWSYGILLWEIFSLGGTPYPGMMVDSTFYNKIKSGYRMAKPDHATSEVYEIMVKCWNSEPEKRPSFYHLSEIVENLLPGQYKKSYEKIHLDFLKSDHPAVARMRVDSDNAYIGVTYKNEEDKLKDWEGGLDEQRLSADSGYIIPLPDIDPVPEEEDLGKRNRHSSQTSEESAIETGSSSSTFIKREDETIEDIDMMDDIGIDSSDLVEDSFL
Chain of CSNK1D (P48730 whole entry): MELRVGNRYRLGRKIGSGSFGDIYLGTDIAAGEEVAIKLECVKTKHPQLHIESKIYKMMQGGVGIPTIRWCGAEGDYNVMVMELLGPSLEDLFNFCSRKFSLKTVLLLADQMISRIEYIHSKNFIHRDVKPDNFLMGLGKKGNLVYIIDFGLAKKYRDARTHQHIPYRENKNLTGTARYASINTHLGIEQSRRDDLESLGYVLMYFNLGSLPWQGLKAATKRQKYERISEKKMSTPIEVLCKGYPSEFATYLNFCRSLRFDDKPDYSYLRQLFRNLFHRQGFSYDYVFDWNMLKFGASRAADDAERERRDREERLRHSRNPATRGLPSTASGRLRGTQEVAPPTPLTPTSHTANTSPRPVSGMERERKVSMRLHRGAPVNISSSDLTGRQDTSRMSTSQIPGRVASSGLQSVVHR
Chain of GRK4 (P32298 whole entry): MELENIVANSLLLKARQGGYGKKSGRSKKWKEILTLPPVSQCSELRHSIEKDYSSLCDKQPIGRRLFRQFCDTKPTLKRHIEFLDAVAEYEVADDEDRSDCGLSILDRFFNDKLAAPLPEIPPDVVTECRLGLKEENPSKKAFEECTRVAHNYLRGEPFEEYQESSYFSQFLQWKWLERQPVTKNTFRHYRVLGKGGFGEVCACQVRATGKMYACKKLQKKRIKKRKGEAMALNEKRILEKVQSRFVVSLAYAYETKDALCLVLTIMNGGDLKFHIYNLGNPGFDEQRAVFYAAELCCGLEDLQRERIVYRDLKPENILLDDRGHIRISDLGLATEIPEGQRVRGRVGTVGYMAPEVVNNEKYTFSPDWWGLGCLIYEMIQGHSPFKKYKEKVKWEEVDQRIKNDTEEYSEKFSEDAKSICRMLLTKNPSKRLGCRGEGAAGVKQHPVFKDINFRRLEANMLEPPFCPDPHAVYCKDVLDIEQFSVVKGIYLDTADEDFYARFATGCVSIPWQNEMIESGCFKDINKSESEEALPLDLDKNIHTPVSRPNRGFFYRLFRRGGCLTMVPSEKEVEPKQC
Chain of TRKB (Q16620 32-822): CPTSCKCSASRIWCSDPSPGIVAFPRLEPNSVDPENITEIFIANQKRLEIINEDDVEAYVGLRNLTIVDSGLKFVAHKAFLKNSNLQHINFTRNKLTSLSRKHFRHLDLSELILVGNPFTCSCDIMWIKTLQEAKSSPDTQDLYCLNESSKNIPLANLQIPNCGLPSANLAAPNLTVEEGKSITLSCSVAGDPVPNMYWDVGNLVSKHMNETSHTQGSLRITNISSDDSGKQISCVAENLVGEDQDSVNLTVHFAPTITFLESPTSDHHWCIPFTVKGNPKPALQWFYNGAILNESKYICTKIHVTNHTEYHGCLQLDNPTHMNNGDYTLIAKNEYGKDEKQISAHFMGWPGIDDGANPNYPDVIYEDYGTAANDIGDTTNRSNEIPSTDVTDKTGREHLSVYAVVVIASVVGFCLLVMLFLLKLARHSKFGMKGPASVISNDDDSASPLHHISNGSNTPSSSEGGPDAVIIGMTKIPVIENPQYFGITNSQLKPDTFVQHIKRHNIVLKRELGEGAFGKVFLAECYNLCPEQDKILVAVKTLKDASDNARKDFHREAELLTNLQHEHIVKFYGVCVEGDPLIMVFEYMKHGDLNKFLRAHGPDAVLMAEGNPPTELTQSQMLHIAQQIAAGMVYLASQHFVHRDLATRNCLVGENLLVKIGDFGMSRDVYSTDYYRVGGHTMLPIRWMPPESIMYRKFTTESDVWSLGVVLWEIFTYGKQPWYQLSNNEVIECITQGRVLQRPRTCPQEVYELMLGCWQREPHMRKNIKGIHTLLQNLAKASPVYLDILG
Chain of human kinome (Homo sapiens, UniProt Q9Y2U5) (Q9Y2U5 whole entry): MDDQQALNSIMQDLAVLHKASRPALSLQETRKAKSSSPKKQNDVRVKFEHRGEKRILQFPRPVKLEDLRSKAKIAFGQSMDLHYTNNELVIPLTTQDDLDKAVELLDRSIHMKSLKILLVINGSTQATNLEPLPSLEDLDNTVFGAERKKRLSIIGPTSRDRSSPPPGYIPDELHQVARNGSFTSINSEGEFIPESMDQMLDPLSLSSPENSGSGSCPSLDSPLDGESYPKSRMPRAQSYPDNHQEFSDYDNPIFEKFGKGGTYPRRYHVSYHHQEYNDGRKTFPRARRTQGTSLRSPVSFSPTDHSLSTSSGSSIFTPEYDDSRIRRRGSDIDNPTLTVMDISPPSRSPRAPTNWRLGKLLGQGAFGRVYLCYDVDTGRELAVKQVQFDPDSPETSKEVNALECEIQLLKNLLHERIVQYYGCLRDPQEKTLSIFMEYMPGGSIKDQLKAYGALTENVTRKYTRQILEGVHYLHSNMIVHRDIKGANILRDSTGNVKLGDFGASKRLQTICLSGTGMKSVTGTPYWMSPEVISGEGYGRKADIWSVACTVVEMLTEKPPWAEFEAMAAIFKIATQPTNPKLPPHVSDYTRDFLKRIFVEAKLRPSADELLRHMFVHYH
Chain of CSNK1A1L (Q8N752 whole entry): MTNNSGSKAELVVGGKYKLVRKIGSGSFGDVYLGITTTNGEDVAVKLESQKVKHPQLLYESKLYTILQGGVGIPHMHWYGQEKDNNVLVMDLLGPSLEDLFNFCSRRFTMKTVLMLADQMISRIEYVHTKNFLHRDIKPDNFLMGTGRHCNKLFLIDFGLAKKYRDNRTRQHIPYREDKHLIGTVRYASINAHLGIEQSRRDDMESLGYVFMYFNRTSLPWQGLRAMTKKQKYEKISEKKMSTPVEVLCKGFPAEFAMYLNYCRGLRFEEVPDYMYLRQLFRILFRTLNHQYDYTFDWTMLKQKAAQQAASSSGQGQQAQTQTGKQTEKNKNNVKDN

COc1cc(F)ccc1-c1cc(Nc2cc(CS(C)(=N)=O)ccn2)ncc1F (centres unmarked) [VIP152]
remaining binding at 1 µM [1]: 65% | remaining binding at 1 µM [2]: 94% | inhibition at 10 µM [3]: 18% | remaining binding at 1 µM [4]: 92% | remaining binding at 1 µM [5]: 58% | inhibition at 10 µM [6]: -15% | remaining binding at 1 µM [7]: 100% | remaining binding at 1 µM [8]: 7.8% | remaining binding at 1 µM [9]: 78% | remaining binding at 0.1 µM [10]: 63% | remaining binding at 1 µM [11]: 84% | remaining binding at 0.1 µM [12]: 100% | remaining binding at 0.1 µM ([13]; PDGFRA, 100 nM): 100% | remaining binding at 1 µM ([13]; kinase PDGFRA (Entrez PDGFRA), compound concentration 1000 nM): 80% | remaining binding at 0.1 µM [14]: 100% | remaining binding at 0.1 µM [15]: 100% | remaining binding at 1 µM [16]: 76% | remaining binding at 0.1 µM [17]: 93% | remaining binding at 0.1 µM ([18]; NEK1, 100 nM): 100% | remaining binding at 1 µM ([18]; kinase NEK1 (Entrez NEK1), compound concentration 1000 nM): 99% | remaining binding at 0.1 µM [19]: 100% | remaining binding at 0.1 µM [20]: 100% | remaining binding at 1 µM [21]: 79% | remaining binding at 1 µM [22]: 100% | remaining binding at 1 µM [23]: 89% | inhibition at 10 µM [24]: 12% | remaining binding at 0.1 µM [25]: 100% | remaining binding at 1 µM [26]: 86% | remaining binding at 1 µM [27]: 92% | remaining binding at 0.1 µM [28]: 100% | remaining binding at 1 µM [29]: 26% | IC50 ([30]; Homo sapiens, 24, 48, and 72 h, read-out: proliferation IC50): 50 to 67 nM | IC50 ([30]; Homo sapiens, two-hour drugging followed by washout, MTS after 72 h, read-out: 50% growth inhibition): 970 nM | remaining binding at 0.1 µM [31]: 100% | remaining binding at 0.1 µM [32]: 96% | inhibition at 10 µM [33]: 14% | inhibition at 10 µM [34]: 56% | remaining binding at 0.1 µM [35]: 100%
